Read-outs that look alike come from different tables or passages of the source. Some results are limits rather than exact numbers.

Assay [1] has as its target T1, clone hp78a (human 5-HT4B receptor) (Homo sapiens, UniProt P34969). The assay can be described thus: Competition of [3H]5-HT binding to membranes of cells transiently expressing clone hp78a.
A further assay concerns the target human 5-HT4B receptor (Homo sapiens, UniProt P34969). As to the kind of experiment: cAMP formation in intact Cos-7 cells transiently expressing the receptor. Conditions: for inhibition at 10 µM: COS-7, read-out: % INHIBITION OF 5-HT RESPONSE
On the technique in general: cAMP levels reflect the balance of adenylyl cyclase and phosphodiesterase activity.

Assay [2] deals with T1, clone hp78a (human 5-HT4B receptor). The assay can be described thus: [3H]5-HT saturation binding to membranes of transiently transfected Cos-7 cells. The conditions noted are these: 100 μM Gpp(NH)p; membranes from transient transfectants.
[3] abbreviates: read-out: Apparent dissociation constant Ki.
Setting [4] is: competitor 100 nM, 5 nM [3H]5-HT, 30 min at 37° C.
Setting [5] is: 5 nM [3H]5-HT, 30 min at 37° C., mean ± S.E.M.
[6] abbreviates: Apparent dissociation constant Ki, 5 nM [3H]5-HT, seven concentrations of competitor, 30 min at 37° C., Cheng-Prusoff, mean ± S.E.M. from 2-3 determinations.
The mark [7] stands for this setting: Apparent dissociation constant Ki.

T1 sequence (P34969 1-445 isoform P34969-2): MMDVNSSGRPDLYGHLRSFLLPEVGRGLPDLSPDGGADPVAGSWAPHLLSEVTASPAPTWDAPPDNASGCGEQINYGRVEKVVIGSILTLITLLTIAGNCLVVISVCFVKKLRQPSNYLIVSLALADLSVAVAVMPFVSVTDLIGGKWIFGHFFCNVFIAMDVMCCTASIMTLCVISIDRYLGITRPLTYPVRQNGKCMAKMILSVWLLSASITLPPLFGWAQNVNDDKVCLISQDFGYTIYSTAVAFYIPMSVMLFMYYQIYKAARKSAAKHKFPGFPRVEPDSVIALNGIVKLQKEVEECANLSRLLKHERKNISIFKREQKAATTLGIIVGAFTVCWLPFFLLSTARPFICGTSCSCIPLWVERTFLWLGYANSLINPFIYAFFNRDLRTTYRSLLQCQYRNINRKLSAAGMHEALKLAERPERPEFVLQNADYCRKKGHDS
Sequence of human 5-HT4B receptor (P34969 1-445 isoform P34969-2): as above

For the compound `c1ccc2c(N3CCNCC3)cccc2c1` [1-NP, 1-naphthylpiperazine], the “PERCENT INHIBITION of specific [3H]5-HT binding” value (“PERCENT INHIBITION of specific” for short) in assay [1] is reported as 44%.
Turning to `COc1cc(N)c(Cl)cc1C(=O)NC1CCN(CCCOc2ccc(F)cc2)CC1OC` (centres unmarked) [cisapride], the “activity at the 5-HT4B receptor” value at human 5-HT4B receptor (discussion statement) is “either poorly active or inactive”.
Regarding `CN1C[C@H](C(=O)N[C@]2(C)O[C@@]3(O)[C@@H]4CCCN4C(=O)[C@H](Cc4ccccc4)N3C2=O)C=C2c3cccc4[nH]cc(c34)C[C@H]21` [Ergotamine], the “PERCENT INHIBITION of specific” value in assay [1] is reported as 79%.
With `CN1CCC(=C2c3ccccc3C=Cc3ccccc32)CC1` [Cyproheptadine], in assay [1] (competitor 30 nM, 5 nM [3H]5-HT, 30 min at 37° C.), the “PERCENT INHIBITION of specific” value is 36%.
For `CN1[C@@H]2CC[C@H]1C[C@@H](OC(=O)c1c[nH]c3ccccc13)C2` [ICS 203930], the “inhibitory effect on the 5-HT cAMP response” value against human 5-HT4B receptor (100 μM) is reported as “weak inhibitory effect”. In addition, the “activity at the 5-HT4B receptor” value at human 5-HT4B receptor (discussion statement) is “either poorly active or inactive”. In addition, in assay [1] (read-out: Apparent dissociation constant Ki, 5 nM [3H]5-HT, seven concentrations of competitor, 30 min at 37° C., Cheng-Prusoff, mean ± S.E.M. from 2-3 determinations), the Ki is over 0.5 µM.
On to `CCCN(CCC)CCc1c[nH]c2ccc(C(N)=O)cc12` [DP-5-CT], for which, in assay [1], the “Hill coefficient nH” value is 0.78. Further, the Ki in assay [1] (setting [3]) came to 0.062 µM.
For the compound `CN(C)CCc1c[nH]c2ccc(O)cc12` [Bufotenin], the “PERCENT INHIBITION of specific” value in assay [1] is 40%.
Same read-out and setting: the figure for `Cc1[nH]c2ccc(O)cc2c1CCN` [2-Me-5-HT] is 7%.
With `O=C(CCCN1CCC2(CC1)C(=O)NCN2c1ccccc1)c1ccc(F)cc1` [Spiperone], the “PERCENT INHIBITION of specific” value in assay [1] (setting [4]) turned out to be 64%.
With `CC[C@@H](CO)NC(=O)[C@@H]1C=C2c3cccc4c3c(cn4C)C[C@H]2N(C)C1` [Methysergide], at human 5-HT4B receptor, the “antagonism of the 5-HT cAMP response” value was “almost completely” and the inhibition at 10 µM worked out at 82 ± 1.5%. Also, in assay [1], the “PERCENT INHIBITION of specific” value came out at 51%.
Turning to `CN1C[C@H](CNC(=O)OCc2ccccc2)C[C@@H]2c3cccc4c3c(cn4C)C[C@H]21` [Metergoline], the “antagonism of the 5-HT cAMP response” value at human 5-HT4B receptor (10 μM) is given as “almost completely”. Moreover, the inhibition at 10 µM at human 5-HT4B receptor came out at 96 ± 1%. The “Hill coefficient nH” value in assay [1] (setting [5]) came out at 1.23. In assay [1] (setting [6]), the Ki was 0.0055 µM.
Turning to `CN1C[C@@H](NS(=O)(=O)N(C)C)C[C@@H]2c3cccc4c3c(cn4C)C[C@H]21` [Mesulergine], the “Hill coefficient nH” value in assay [1] (setting [5]) is recorded as 1.09. The Ki in assay [1] (setting [6]) was determined as 0.0096 µM.
As for `O=C(c1ccc(F)cc1)C1CCN(CCn2c(=O)[nH]c3ccccc3c2=O)CC1` [Ketanserin], the Ki in assay [1] (setting [6]) is over 0.1 µM. For the same compound, the “PERCENT INHIBITION of specific” value in assay [1] (setting [4]) is reported as 17%.
In the case of `Cc1nc2sccn2c(=O)c1CCN1CCC(=C(c2ccc(F)cc2)c2ccc(F)cc2)CC1` [Ritanserin], the “PERCENT INHIBITION of specific” value in assay [1] (competitor 10 nM, 5 nM [3H]5-HT, 30 min at 37° C.) is given as 32%.
Take `CCN(CC)C(=O)[C@@H]1C=C2c3cccc4[nH]c(Br)c(c34)C[C@H]2N(C)C1` [2-Br-LSD]: on human 5-HT4B receptor (drug 1 μM, intact Cos-7 cells), the “FOLD cAMP STIMULATION relative to basal levels” value was found to be 0 fold. Also, the “Hill coefficient nH” value in assay [1] turned out to be 1.02 ± 0.16. For the same compound, in assay [1] (setting [3]), the Ki is 0.039 ± 0.007 µM.
`CC(C)C[C@H]1C(=O)N2CCC[C@H]2[C@]2(O)O[C@](NC(=O)[C@@H]3C=C4c5cccc6[nH]c(Br)c(c56)C[C@H]4N(C)C3)(C(C)C)C(=O)N12` [Bromocriptine]: the “Hill coefficient nH” value in assay [1] is given as 1.15. Besides, the Ki in assay [1] (setting [7]) was determined as 0.135 µM.
Turning to `CN1C[C@H](C(=O)N[C@]2(C)O[C@@]3(O)[C@@H]4CCCN4C(=O)[C@H](Cc4ccccc4)N3C2=O)C[C@@H]2c3cccc4[nH]cc(c34)C[C@H]21` [Dihydroergotamine], in assay [1], the “Hill coefficient nH” value is listed as 1.36 ± 0.08. Further, the Ki in assay [1] (setting [7]) was 0.006 ± 0.0002 µM; in assay [1] (setting [3]), 0.005 to 0.01 µM.
With `COc1ccc2[nH]cc(CCN)c2c1` [5-MeOT], the “agonist activity on cAMP” value on human 5-HT4B receptor is reported as “potent agonists”. Further, the “Hill coefficient nH” value in assay [1] was found to be 1.00 ± 0.03.
For `COc1cc(N)c(Cl)cc1C(=O)NC1CN2CCC1CC2` (centres unmarked) [Zacopride], the “activity at the 5-HT4B receptor” value at human 5-HT4B receptor (discussion statement) is “either poorly active or inactive”. In assay [1] (setting [6]), the Ki is over 0.5 µM. The “PERCENT INHIBITION of specific” value in assay [1] (setting [4]) is given as 0%.
Take `NCCc1c[nH]c2ccccc12` [Tryptamine]: the “PERCENT INHIBITION of specific” value in assay [1] is given as 32%.
As to `CCCN(CCC)C1CCc2cccc(O)c2C1` (centres unmarked) [DPAT], the “Hill coefficient nH” value in assay [1] (setting [5]) came out at 0.76.
For `Nc1nc2c(ncn2[C@@H]2O[C@H](COP(=O)(O)OP(=O)(O)NP(=O)(O)O)[C@@H](O)[C@H]2O)c(=O)[nH]1` [Gpp(NH)p, 5′-guanylylimidodiphosphate], the “reduction of high affinity [3H]5-HT binding” value in assay [2] came to 75%.
As for `NCCc1c[nH]c2ccc(O)cc12` [5-HT, 5-hydroxytryptamine], the “inhibition of basal or FSK-stimulated cAMP release” value against human 5-HT4B receptor (5-HT 1 μM, transfected Cos-7 cells) is “not observed”. Also, at human 5-HT4B receptor (discussion statement), the “increase in cAMP release over basal levels” value is listed as 20 fold. Further, the “Ki in binding assays higher affinity than EC50 in functional assays” value at human 5-HT4B receptor (ratio of EC50 to Ki) is listed as “approximately 100 fold”. Also, the “Hill coefficient nH” value in assay [1] (setting [5]) stood at 1.07 ± 0.07.
Consider `CC(C)NCC(O)COc1cccc2[nH]ccc12` (racemic) [Pindolol], for which, in assay [1], the “PERCENT INHIBITION of specific” value amounted to 11%.
In the case of `CNS(=O)(=O)Cc1ccc2[nH]cc(CCN(C)C)c2c1` [Sumatriptan], the “Hill coefficient nH” value in assay [1] (setting [5]) is on record as 0.88 ± 0.03. For the same compound, the Ki in assay [1] (setting [6]) turned out to be 0.764 ± 0.029 µM.

What is called inhibition is how much of the control response was suppressed.

The values above are taken from US6376243B1, “DNA encoding a human serotonin receptor (5-HT4B) and uses thereof” (Synaptic Pharmaceutical Corporation, priority 1992, dated 2002).
